# US8785457B2 (Cellzome Limited, priority 2009, dated 2014)
# Where two headings read alike, the source gives them in different places.
# Columns and labels:
# PI3K delta (PI3 Kd) = target: T1, PI3K delta (PI3 Kd) (Homo sapiens, UniProt O00329); assay: kinobeads assay, PI3K delta; format: binding; conditions: kinobeads assay, read-out: Inhibition values (IC50) PI3Kd
# T1 construct: endogenous in cells; host or cells: Jurkat, clone E6-1 (ATCC TIB-152) cell lysate
# In short: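 Competitive binding in Jurkat cell lysate (5 mg/ml total protein): test compounds at various concentrations competed with beads bearing immobilized phenylmorpholin-chromen ligand. Bead-bound kinases were eluted and quantified by antibody dot blot with infrared detection; IC50 values came from dose-response curves.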
# PI3 Kgamma (PI3 Kg) = target: T2, PI3 Kgamma (PI3 Kg) (Homo sapiens, UniProt P48736); assay: kinobeads assay, PI3Kgamma; format: binding; conditions: kinobeads assay, Table 6; read-out: Inhibition values (IC50) PI3Kg
# T2 construct: endogenous in cells; host or cells: cell lysate
# T2 sequence (P48736 whole entry): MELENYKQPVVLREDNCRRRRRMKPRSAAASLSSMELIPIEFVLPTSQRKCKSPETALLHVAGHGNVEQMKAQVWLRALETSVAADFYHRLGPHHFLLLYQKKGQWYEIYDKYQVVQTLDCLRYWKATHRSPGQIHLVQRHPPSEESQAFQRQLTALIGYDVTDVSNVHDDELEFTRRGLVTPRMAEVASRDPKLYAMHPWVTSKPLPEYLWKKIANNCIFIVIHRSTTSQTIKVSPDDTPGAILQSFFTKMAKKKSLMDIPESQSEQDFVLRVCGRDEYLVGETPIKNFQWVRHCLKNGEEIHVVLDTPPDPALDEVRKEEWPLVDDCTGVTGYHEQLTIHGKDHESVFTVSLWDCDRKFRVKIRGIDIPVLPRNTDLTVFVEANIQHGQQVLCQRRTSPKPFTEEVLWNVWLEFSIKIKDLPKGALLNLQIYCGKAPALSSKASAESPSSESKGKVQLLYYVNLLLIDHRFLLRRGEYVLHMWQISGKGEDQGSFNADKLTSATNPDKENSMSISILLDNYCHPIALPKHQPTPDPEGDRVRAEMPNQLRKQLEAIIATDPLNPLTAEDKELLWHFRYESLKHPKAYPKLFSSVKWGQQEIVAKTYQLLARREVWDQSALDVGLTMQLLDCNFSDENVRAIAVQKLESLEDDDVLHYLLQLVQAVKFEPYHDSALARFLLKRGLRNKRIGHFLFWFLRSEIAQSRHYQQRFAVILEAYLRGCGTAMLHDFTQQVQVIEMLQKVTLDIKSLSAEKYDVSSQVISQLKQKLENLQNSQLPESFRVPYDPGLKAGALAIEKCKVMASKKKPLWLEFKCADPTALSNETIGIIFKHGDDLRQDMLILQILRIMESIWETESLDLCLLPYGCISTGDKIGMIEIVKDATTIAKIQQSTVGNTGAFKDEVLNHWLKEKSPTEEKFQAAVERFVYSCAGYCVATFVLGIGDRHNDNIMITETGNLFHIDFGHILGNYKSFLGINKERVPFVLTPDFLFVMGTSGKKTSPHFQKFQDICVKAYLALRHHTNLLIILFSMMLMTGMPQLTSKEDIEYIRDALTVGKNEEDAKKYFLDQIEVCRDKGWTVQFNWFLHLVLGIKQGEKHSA
# In short: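 IC50 values derive from per-kinase dose-response curves in a lysate-based competition binding format. Kinases retained on phenylmorpholin-chromen beads in the presence of compound were eluted and detected by multiplexed immunodetection.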
# T1 sequence (O00329 whole entry): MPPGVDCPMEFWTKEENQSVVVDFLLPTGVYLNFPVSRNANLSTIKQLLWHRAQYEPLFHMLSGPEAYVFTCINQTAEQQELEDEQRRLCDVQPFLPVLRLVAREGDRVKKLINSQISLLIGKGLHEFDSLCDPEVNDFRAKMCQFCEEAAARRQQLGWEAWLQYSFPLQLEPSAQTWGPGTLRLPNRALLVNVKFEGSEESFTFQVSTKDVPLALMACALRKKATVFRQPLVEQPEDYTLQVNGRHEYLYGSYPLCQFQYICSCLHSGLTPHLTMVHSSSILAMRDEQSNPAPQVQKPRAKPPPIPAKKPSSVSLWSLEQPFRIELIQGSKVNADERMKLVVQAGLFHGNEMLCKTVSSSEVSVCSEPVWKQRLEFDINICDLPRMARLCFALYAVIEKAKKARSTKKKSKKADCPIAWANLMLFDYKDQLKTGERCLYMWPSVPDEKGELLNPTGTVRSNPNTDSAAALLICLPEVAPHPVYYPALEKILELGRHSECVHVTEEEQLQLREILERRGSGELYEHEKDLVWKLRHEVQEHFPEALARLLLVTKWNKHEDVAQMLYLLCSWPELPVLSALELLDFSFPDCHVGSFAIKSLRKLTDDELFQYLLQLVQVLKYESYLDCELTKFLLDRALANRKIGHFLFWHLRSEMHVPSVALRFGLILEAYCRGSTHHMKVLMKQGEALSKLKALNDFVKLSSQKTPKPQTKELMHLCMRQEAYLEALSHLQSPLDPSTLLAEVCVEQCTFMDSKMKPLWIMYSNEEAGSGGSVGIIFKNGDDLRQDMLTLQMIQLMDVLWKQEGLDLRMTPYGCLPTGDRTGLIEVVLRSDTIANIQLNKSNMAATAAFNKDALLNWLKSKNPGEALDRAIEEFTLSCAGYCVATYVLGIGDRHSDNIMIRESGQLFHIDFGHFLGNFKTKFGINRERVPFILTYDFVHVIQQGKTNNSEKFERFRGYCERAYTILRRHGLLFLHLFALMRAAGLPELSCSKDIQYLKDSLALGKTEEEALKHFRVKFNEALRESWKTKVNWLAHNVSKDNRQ
# T1 sequence (P27986 whole entry partner): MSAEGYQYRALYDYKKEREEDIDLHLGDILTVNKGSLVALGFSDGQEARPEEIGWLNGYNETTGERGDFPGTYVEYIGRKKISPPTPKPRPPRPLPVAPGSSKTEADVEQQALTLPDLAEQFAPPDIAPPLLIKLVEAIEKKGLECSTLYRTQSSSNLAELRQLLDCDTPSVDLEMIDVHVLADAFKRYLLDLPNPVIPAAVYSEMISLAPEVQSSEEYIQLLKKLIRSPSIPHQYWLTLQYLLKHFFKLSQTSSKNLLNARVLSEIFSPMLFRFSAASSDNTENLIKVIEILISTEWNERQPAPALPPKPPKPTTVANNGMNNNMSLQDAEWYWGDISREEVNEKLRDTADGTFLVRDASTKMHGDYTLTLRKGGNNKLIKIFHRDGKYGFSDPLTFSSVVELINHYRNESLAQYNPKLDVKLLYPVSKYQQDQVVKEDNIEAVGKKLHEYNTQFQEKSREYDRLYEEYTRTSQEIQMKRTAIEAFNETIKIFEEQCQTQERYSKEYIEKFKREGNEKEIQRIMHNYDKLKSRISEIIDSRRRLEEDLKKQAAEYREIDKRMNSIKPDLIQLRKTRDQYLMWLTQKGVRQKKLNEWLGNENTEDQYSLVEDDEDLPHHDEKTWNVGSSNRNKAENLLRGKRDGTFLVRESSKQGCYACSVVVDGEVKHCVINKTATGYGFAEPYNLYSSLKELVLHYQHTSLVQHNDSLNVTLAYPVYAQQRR
IC50 (PI3K delta (PI3 Kd); Table 4) [µM],IC50 (PI3K delta (PI3 Kd); Table 6) [µM],IC50 (PI3 Kgamma (PI3 Kg)) [µM],SMILES
> 10,> 10,–,"CCNC(=O)Nc1ccc(-c2nc3c(c(N4CCOC[C@@H]4C)n2)CN(C(=O)OC(C)(C)C)C3)cc1 [Example 1, (S)-tert-butyl 2-(4-(3-ethylureido)phenyl)-4-(3-methylmorpholino)-5H-pyrrolo[3,4-d]pyrimidine-6(7H)-carboxylate]"
> 10,> 10,> 10,"CCNC(=O)Nc1ccc(-c2nc3c(c(N4CCOC[C@@H]4C)n2)CCN(C(=O)C(C)(C)C)C3)cc1 [Example 58, (S)-1-ethyl-3-(4-(4-(3-methylmorpholino)-7-pivaloyl-5,6,7,8-tetrahydropyrido[3,4-d]pyrimidin-2-yl)phenyl)urea]"
> 10,> 10,–,"CCNC(=O)Nc1ccc(-c2nc3c(c(N4CCOC[C@@H]4C)n2)CCN(C(C)=O)C3)cc1 [Example 59, (S)-1-(4-(7-acetyl-4-(3-methylmorpholino)-5,6,7,8-tetrahydropyrido[3,4-d]pyrimidin-2-yl)phenyl)-3-ethylurea]"
> 10,> 10,> 10,"C[C@H]1COCCN1c1nc(-c2ccc(NC(=O)NC3CC3)cc2)nc2c1CCN(C(=O)C1CC1)C2 [Example 60, (S)-1-(4-(7-(cyclopropanecarbonyl)-4-(3-methylmorpholino)-5,6,7,8-tetrahydropyrido[3,4-d]pyrimidin-2-yl)phenyl)-3-cyclopropylurea]"
> 10,> 10,> 10,"CC(C)C(=O)N1CCc2c(nc(-c3ccc(NC(=O)NC4CC4)cc3)nc2N2CCOC[C@@H]2C)C1 [Example 61, (S)-1-cyclopropyl-3-(4-(7-isobutyryl-4-(3-methylmorpholino)-5,6,7,8-tetrahydropyrido[3,4-d]pyrimidin-2-yl)phenyl)urea]"
> 10,> 10,> 10,"CC(=O)N1CCc2c(nc(-c3ccc(NC(=O)NC4CC4)cc3)nc2N2CCOC[C@@H]2C)C1 [Example 62, (S)-1-(4-(7-acetyl-4-(3-methylmorpholino)-5,6,7,8-tetrahydropyrido[3,4-d]pyrimidin-2-yl)phenyl)-3-cyclopropylurea]"
–,> 10,> 10,"C[C@H]1COCCN1c1nc(-c2ccc(NC(=O)NC3CC3)cc2)nc2c1CCN(C(=O)C(C)(C)C)C2 [Example 64, (S)-1-cyclopropyl-3-(4-(4-(3-methylmorpholino)-7-pivaloyl-5,6,7,8-tetrahydropyrido[3,4-d]pyrimidin-2-yl)phenyl)urea]"
–,> 10,> 10,"CC(C)CN1Cc2nc(-c3ccc(NC(=O)NC4CC4)cc3)nc(N3CCOC[C@@H]3C)c2C1 [Example 65, (S)-1-cyclopropyl-3-(4-(6-isobutyl-4-(3-methylmorpholino)-6,7-dihydro-5H-pyrrolo[3,4-d]pyrimidin-2-yl)phenyl)urea]"
–,> 10,> 10,"CCNC(=O)Nc1ccc(-c2nc3c(c(N4CCOC[C@@H]4C)n2)CN(CC(C)C)C3)cc1 [Example 66, (S)-1-ethyl-3-(4-(6-isobutyl-4-(3-methylmorpholino)-6,7-dihydro-5H-pyrrolo[3,4-d]pyrimidin-2-yl)phenyl)urea]"
–,> 10,> 10,"CCNC(=O)Nc1ccc(-c2nc3c(c(N4CCOC[C@@H]4C)n2)CN(CC(C)(C)C)C3)cc1 [Example 67, (S)-1-ethyl-3-(4-(4-(3-methylmorpholino)-6-neopentyl-6,7-dihydro-5H-pyrrolo[3,4-d]pyrimidin-2-yl)phenyl)urea]"
–,> 10,> 10,"CCNC(=O)Nc1ccc(-c2nc3c(c(N4CCOC[C@@H]4C)n2)CN(CC(F)(F)F)C3)cc1 [Example 68, (S)-1-ethyl-3-(4-(4-(3-methylmorpholino)-6-(2,2,2-trifluoroethyl)-6,7-dihydro-5H-pyrrolo[3,4-d]pyrimidin-2-yl)phenyl)urea]"
–,> 10,> 10,"CCNC(=O)Nc1ccc(-c2nc3c(c(N4CCOCC4)n2)CN(C)C3)cc1 [Example 69, 1-Ethyl-3-(4-(6-methyl-4-morpholino-6,7-dihydro-5H-pyrrolo[3,4-d]pyrimidin-2-yl)phenyl)urea]"
–,1 to 10,> 10,"CCNC(=O)Nc1ccc(-c2nc3c(c(N4CCOCC4)n2)CN(C(=O)OCC)C3)cc1 [Example 70, Ethyl 2-(4-(3-ethylureido)phenyl)-4-morpholino-5H-pyrrolo[3,4-d]pyrimidine-6(7H)-carboxylate]"
–,1 to 10,1 to 10,"C[C@H]1COCCN1c1nc(-c2ccc(NC(N)=O)cc2)nc2c1CN(C)C2 [Example 71, (S)-1-(4-(6-methyl-4-(3-methylmorpholino)-6,7-dihydro-5H-pyrrolo[3,4-d]pyrimidin-2-yl)phenyl)urea]"
–,> 10,> 10,"Cc1cc(NC(=O)Nc2ccc(-c3nc4c(c(N5CCOC[C@@H]5C)n3)CN(C)C4)cc2)no1 [Example 72, (S)-1-(4-(6-methyl-4-(3-methylmorpholino)-6,7-dihydro-5H-pyrrolo[3,4-d]pyrimidin-2-yl)phenyl)-3-(5-methylisoxazol-3-yl)urea]"
–,1 to 10,> 10,"C[C@H]1COCCN1c1nc(-c2ccc(NC(=O)NCCO)cc2)nc2c1CN(C)C2 [Example 73, (S)-1-(2-hydroxyethyl)-3-(4-(6-methyl-4-(3-methylmorpholino)-6,7-dihydro-5H-pyrrolo[3,4-d]pyrimidin-2-yl)phenyl)urea]"
–,> 10,> 10,"CCNC(=O)Nc1ccc(-c2nc3c(c(N4CCOC[C@@H]4C)n2)CN(C(C)C)C3)cc1 [Example 74, (S)-1-ethyl-3-(4-(6-isopropyl-4-(3-methylmorpholino)-6,7-dihydro-5H-pyrrolo[3,4-d]pyrimidin-2-yl)phenyl)urea]"
–,> 10,> 10,"CCNC(=O)Nc1ccc(-c2nc3c(c(N4CCOC[C@@H]4C)n2)CCN(CC(C)C)C3)cc1.O=CO [Example 76, (S)-1-ethyl-3-(4-(7-isobutyl-4-(3-methylmorpholino)-5,6,7,8-tetrahydropyrido[3,4-d]pyrimidin-2-yl)phenyl)urea formate]"
–,> 10,> 10,"CCNC(=O)Nc1ccc(-c2nc3c(c(N4CCOC[C@@H]4C)n2)CCN(C(=O)OCC)C3)cc1 [Example 77, (S)-ethyl 2-(4-(3-ethylureido)phenyl)-4-(3-methylmorpholino)-5,6-dihydropyrido[3,4-d]pyrimidine-7(8H)-carboxylate]"
–,> 10,> 10,"CCOC(=O)N1CCc2c(nc(-c3ccc(NC(=O)NC4CC4)cc3)nc2N2CCOC[C@@H]2C)C1 [Example 78, (S)-ethyl 2-(4-(3-cyclopropylureido)phenyl)-4-(3-methylmorpholino)-5,6-dihydropyrido[3,4-d]pyrimidine-7(8H)-carboxylate]"
–,> 10,1 to 10,"C[C@H]1COCCN1c1nc(-c2ccc(NC(=O)Nc3cccc(O)n3)cc2)nc2c1CN(C)C2 [Example 80, (S)-1-(6-hydroxypyridin-2-yl)-3-(4-(6-methyl-4-(3-methylmorpholino)-6,7-dihydro-5H-pyrrolo[3,4-d]pyrimidin-2-yl)phenyl)urea]"
–,> 10,–,"C[C@H]1COCCN1c1nc(-c2ccc(NC(=O)NC3CC3)cc2)nc2c1CN(CC(F)(F)F)C2 [Example 101, (S)-1-cyclopropyl-3-(4-(4-(3-methylmorpholino)-6-(2,2,2-trifluoroethyl)-6,7-dihydro-5H-pyrrolo[3,4-d]pyrimidin-2-yl)phenyl)urea]"
